In PMC11904221 (EMBO Molecular Medicine, 2025):
Several values for one entry are separate records, joined by “and”; a condition that tells them apart may be missing. Equal entries are not always repeated.

Columns and labels:
[1] = tested on: aortic ring microvessel sprouting; assay: Aortic ring assay; parameters: species or system mouse; details: 100 nM, VEGF 30 ng/ml
Source text: Angiogenesis is a complex intercellular process involving the organization of various cells.

HCT116 tumors = assay: Tumor blood flow, laser Doppler, HCT116 tumors; assay type: in vivo, mouse; details: Bevacizumab 5 (mg/Kg), individual values
Source text: (§1) Tumor growth, apoptosis, proliferation, and/or the angiogenic index of the developed tumors were first evaluated.
(§2) (A) Scheme and workflow of apelin-dm preclinic studies. […] (B–D) Error bars indicate s.e.m. center values indicate mean (Mann–Whitney U test). […] The percentage of relative staining intensity corresponding to CD31, Ki67, and BIM expression in CT-26 and MC-38 tumors of treated mice are shown in (I–N). Scale bar, 100 µm. Data represent mean ± s.e.m. of 3–4 independent experiments. P values were calculated with the Student t test in GraphPad. […] Quantification of tumor area (P) and vascularized area (Q) relative to control untreated CAMs (n = 3 CAM per group) assigned 100%. Data represent mean ± s.e.m. P values were calculated with the Student t test in GraphPad. […] (S, T) The average blood flow expressed in % relative to blood flow measured in […] (S) and MDA-MB231 (T) developed tumors. Data represent mean ± s.e.m. of 3–4 independent experiments. P values were calculated with the Student t test in GraphPad. Source data are available online for this figure.
(§3) Additional experiments involved injecting 1 × 10^6 control CT-26/MC-38/MDA-MB231 cells into BALB/c, C57BL/6, or nude mice, respectively. […] LASER Doppler imaging assessed total blood flow, with FlowR® Hemodynamics visualization used for analysis. Results were expressed as % relative to pre-treatment tumor blood flow.

MDA-MB-231 tumors = assay: Tumor blood flow, laser Doppler, MDA-MB-231 tumors; assay type: in vivo, mouse; details: Bevacizumab 5 (mg/Kg), individual values
Source text: as §1, §2, §3

[2] = in vitro and in CAM assays; ref Ljoki et al, 2022; Ademi et al, 2021; cited from earlier work
HUVEC [3] = assay: Tube-like formation assay; details: read-out: EC50 (reduction of 50% of junction number); HUVEC on Geltrex, 18h treatment, 5 nM to 5 μM, GraphPad Prism
HUVEC [4] = assay: HUVEC proliferation with VEGF, IncuCyte confluence; assay type: cell-based, human
Source text: Red arrows indicate the direction of vessel formation. […] All data are representative of three independent experiments. […] The two Furin cleavage sites are shown. […] (S–U) Plasmon waveguide resonance (PWR). […] Source data are available online for this figure.

HUVEC [5] = assay: VEGF-induced migration of HUVECs; assay type: cell-based, human; details: VEGF 30 ng/ml, apelin-dm 100 nM, individual values; control column 95-118
ERK = details: VEGF 30ng/mL, apelin-dm 100 nM, individual values n = 3

| Substance | VEGF-induced aortic ring sprouting [1] | tumor blood flow, % relative (HCT116 tumors) | tumor blood flow, % relative (MDA-MB-231 tumors) | concentration with inhibitory effects [2] | EC50 (HUVEC [3]) | HUVEC confluence (HUVEC [4]; 0 h, VEGF 30 ng/ml or apelin-dm 100 nM, means, n = 6 wells) | HUVEC confluence (HUVEC [4]; 24 h) | HUVEC confluence (HUVEC [4]; 48 h) | HUVEC confluence (HUVEC [4]; 72 h) | HUVEC confluence (HUVEC [4]; 96 h) | HUVEC confluence (HUVEC [4]; 120 h) | HUVEC migration (HUVEC [5]) | ERK phosphorylation relative to control untreated HUVEC assigned 100% (ERK) |
| --- | --- | --- | --- | --- | --- | --- | --- | --- | --- | --- | --- | --- | --- |
| Bevacizumab | apelin-dm was comparable in effect to Bevacizumab | 86 and 65 and 70 and 63 and 59 | 82 and 75 and 69 and 51 | around 100 nM | 83 nM and 130 nM | – | – | – | – | – | – | – | – |
| VEGF | – | – | – | – | – | 10 | 19 | 33 | 55 | 75 | 82 | 160 and 250 and 188 and 208 and 299 and 320 and 199 | 144.293 and 157.045 and 122.733 |
